According to patent US20120295935A1, “MIXED AMINAL PHARMACEUTICAL COMPOSITIONS AND USES THEREOF” (priority 2010, published 2012):
“Also recorded” adds a separate entry of the source.

How the values were obtained:
MC3T3 cells [1] = test: mRNA expression levels by real-time PCR; assay type: cell-based, mouse; conditions: 1-100 nM for 1-24 h
[2] = test system: MC3T3 E1 osteoblast-like cells; test: Western blot of eIF2α-p, ATF4, CHOP and caspase 3 proteins in response to thapsigargin; assay type: cell-based, mouse
Method: At higher doses of 10 and 100 nM, the levels of eIF2α-p and ATF4 proteins were elevated (FIG. 3A). Thapsigarin is known to induce apoptosis when administered above a threshold concentration.

MC3T3 cells [3] = test: Phosphorylation of eIF2α kinases (PERK, PKR) and MAP kinases (p-38 MAPK, ERK1/2); assay type: cell-based, mouse; conditions: 10 nM, 1 h exposure
Method: In response to T1h (1 h exposure at 10 nM), the level of phosphorylation of two eIF2α kinases (PERK and PKR), and two MAP kinases (p-38 MAPK and ERK1/2) was examined (FIG. 6).

MC3T3 cells [4] = test: mRNA expression levels by real-time PCR; assay type: cell-based, mouse
Method: Responses to Administration of Thapsigargin—Upregulation of transcription factors linked to bone formation as well as PERK: The effects of 10 nM thapsigargin on mRNA expression levels of ISR-linked genes (ATF4, ATF3, and CHOP) as well as genes involved in bone remodeling (Runx2, Osterix, and Rank1), were examined (FIG. 5). […] Out of 4 transcription factors (ATF4, ATF3, Runx2, and Osterix), the level of ATF4 mRNA was elevated 2-4 fold throughout the treatments. […] The mRNA level of type 1 collagen was elevated 5 h and 10 h for T1h (1 h exposure at 10 nM).
Responses to Administration of Salubrinal—In vitro responses to salubrinal: In order to evaluate the effects of salubrinal, MC3T3 E1 osteoblast-like cells and MLO-A5 osteocyte cells (Barragan-Adjemian, C., et al., “Mechanism by which MLO-A5 late osteoblasts/early osteocytes mineralize in culture: similarities with mineralization of lamellar bone,” Calcif. Tissue Int. 79:340-353 (2006)) were incubated with salubrinal at 100 nM-50 μM for 1-24 h. The mRNA levels of the selected genes, TF4, ATF3, Osteocalcin (OCN), and CHOP, were determined by real-time PCR. […] In MC3T3 cells, for instance, the Osteocalcin mRNA level, which is regulated by ATF4 and Runx2 (Xiao et al. 2005), was elevated 11.8±0.2 fold at 10 μM salubrinal in 24 h.

MC3T3 cells [5] = test: Cell proliferation and death; assay type: cell-based; conditions: 1 h incubation with 10 nM (mild ER stress)

## C/C=C(/C)C(=O)O[C@H]1C(C)=C2[C@H]([C@@H]1OC(=O)CCCCCCC)[C@@](C)(OC(C)=O)C[C@H](OC(=O)CCC)[C@@]1(O)[C@H]2OC(=O)[C@@]1(C)O [thapsigargin]
MC3T3 cells [1]
  Osteocalcin mRNA level: did not increase
[2]; 10 nM
  CHOP protein level: started to increase after 3 h
  Pro-caspase 3 level: not significantly altered
  cleaved caspase 3 (active form) level: increased after 24 h
[2]; 10 and 100 nM
  ATF4 protein level: elevated
  eIF2α-p protein level: elevated
[2]; lower dosages below 0.1 nM
  ATF4 protein level: no detectable upregulation
  eIF2α-p protein level: no detectable upregulation
MC3T3 cells [3]
  p-ERK1/2 level: not altered; also recorded: unchanged
  p-PERK level: elevated; also recorded: Activation
  p-PKR level: not altered; also recorded: unchanged
  p-p38 MAPK level: elevated; also recorded: Activation
MC3T3 cells [4]; 10 nM
  ATF3 mRNA level: 100-1000 times
  CHOP mRNA level: 10-35 fold
  Osterix mRNA: enhanced at 1 h
  Runx2 mRNA increase: started at 3 h and peaked at 5 h
MC3T3 cells [4]; 10 nM, 1, 2 and 3 h exposures
  ATF4 mRNA level: 2-4 fold
MC3T3 cells [4]; 3 h for T2h and 10 h for T3h, 10 nM
  Rank1 mRNA: significantly up
MC3T3 cells [4]; 5 h and 10 h for T1h (1 h exposure at 10 nM)
  type 1 collagen mRNA level: elevated
MC3T3 cells [5]
  numbers of live and dead cells (cell number or mortality): does not alter; also recorded: no significant difference
